Patent US20210300924A1, “5-[6-[[3-(4,5,6,7-TETRAHYDROPYRAZOLO[4,3-C]PYRIDIN-1-YL)AZETIDIN-1-YL]METHYL]MORPHOLIN-4-YL]QUINOLINE-8-CARBONITRILE DERIVATIVES AND SIMILAR COMPOUNDS AS TLR7-9 ANTAGONISTS FOR TREATING SYSTEMIC LUPUS ERYTHEMATOSUS” (Hoffmann-La Roche Inc., priority 2018, published 2021)

Biological target: T1, hERG channel (Homo sapiens, UniProt Q12809)
T1 construct: expressed in transfected cells; host or cells: CHO (Chinese hamster ovary), CHOhERG
Test: hERG channel inhibition assay (patch-clamp, CHOhERG cells)
Format: cell-based
Conditions: for IC50 / IC20: CHOhERG cells, whole-cell patch-clamp; for IC20: human, CHO cells stably expressing hERG (CHOhERG cells); for hERG IC20/TLR7 IC50 / hERG IC20/TLR8 IC50 / hERG IC20/TLR9 IC50: safety ratio, >30 suggests sufficient window
Description: hERG Channel Inhibition Assay:
The hERG K^+ channels were cloned in humans and stably expressed in a CHO (Chinese hamster ovary) cell line. CHOhERG cells were used for patch-clamp (voltage-clamp, whole-cell) experiments. Cells were stimulated by a voltage pattern to activate hERG channels and conduct hERG currents (rapid delayed outward rectifier potassium current of the hERG channel). After the cells were stabilized for a few minutes, the amplitude and kinetics of IKhERG were recorded at a stimulation frequency of 0.1 Hz (6 bpm). Thereafter, the test compound was added to the preparation at increasing concentrations. For each concentration, an attempt was made to reach a steady-state effect, usually, this was achieved within 3-10 min at which time the next highest concentration was applied. The amplitude and kinetics of IKhERG are recorded in each concentration of the drug which were compared to the control values (taken as 100%). (references: Redfern W S, Carlsson L, Davis A S, Lynch W G, MacKenzie I, Palethorpe S, Siegl P K, Strang I, Sullivan A T, Wallis R, Camm A J, Hammond T G. 2003; Relationships between preclinical cardiac electrophysiology, clinical QT interval prolongation and torsade de pointes for a broad range of drugs: evidence for a provisional safety margin in drug development. Cardiovasc. Res. 58:32-45, Sanguinetti MC, Tristani-Firouzi M. 2006; hERG potassium channels and cardiac arrhythmia. Nature 440:463-469, Webster R, Leishman D, Walker D. 2002; Towards a drug concentration effect relationship for QT prolongation and torsades de pointes. Curr. Opin. Drug Discov. Devel. 5:116-26).

T1 sequence (Q12809 whole entry): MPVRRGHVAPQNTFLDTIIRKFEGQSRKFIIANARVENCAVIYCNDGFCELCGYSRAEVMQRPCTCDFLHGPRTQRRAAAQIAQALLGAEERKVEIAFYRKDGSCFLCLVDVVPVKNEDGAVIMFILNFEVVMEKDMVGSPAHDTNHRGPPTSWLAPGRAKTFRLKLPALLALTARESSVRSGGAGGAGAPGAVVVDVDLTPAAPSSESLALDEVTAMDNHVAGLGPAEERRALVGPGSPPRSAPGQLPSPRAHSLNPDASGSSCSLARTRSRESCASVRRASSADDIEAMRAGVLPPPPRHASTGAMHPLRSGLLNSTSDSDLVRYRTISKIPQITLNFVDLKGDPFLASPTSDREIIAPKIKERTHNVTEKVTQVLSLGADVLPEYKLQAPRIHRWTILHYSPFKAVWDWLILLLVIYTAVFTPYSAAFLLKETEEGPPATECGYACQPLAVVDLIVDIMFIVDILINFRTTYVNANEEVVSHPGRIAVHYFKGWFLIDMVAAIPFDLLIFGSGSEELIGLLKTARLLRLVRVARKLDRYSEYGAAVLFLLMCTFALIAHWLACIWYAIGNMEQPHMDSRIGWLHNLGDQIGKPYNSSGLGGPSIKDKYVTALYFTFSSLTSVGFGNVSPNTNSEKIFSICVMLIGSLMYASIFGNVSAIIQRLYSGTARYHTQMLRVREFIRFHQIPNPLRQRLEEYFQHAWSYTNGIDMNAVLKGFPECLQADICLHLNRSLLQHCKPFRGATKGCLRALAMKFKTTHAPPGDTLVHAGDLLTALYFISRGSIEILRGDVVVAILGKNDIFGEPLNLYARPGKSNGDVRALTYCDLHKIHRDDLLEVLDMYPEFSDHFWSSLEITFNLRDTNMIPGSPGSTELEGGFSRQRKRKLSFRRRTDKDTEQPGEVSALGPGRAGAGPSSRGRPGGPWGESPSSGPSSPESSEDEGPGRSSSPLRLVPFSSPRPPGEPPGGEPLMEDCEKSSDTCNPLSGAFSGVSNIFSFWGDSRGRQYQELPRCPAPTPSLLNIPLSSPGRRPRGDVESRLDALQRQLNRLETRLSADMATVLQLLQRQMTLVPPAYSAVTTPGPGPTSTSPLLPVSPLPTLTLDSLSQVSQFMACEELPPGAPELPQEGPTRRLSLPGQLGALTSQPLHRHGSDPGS

Compound | IC50 [µM] | IC20 [µM] | hERG IC20/TLR7 IC50 | hERG IC20/TLR8 IC50 | hERG IC20/TLR9 IC50
C[C@@H]1CN(c2ccc(C#N)c3ncccc23)C[C@H](CN2CC(n3cc4c(n3)CCNC4)C2)O1 [Example 2, 5-[(2R,6S)-2-methyl-6-[[3-(4,5,6,7-tetrahydropyrazolo[4,3-c]pyridin-2-yl)azetidin-1-yl]methyl]morpholin-4-yl]quinoline-8-carbonitrile] | > 20 | > 10 | >403.5 | >538.4 | >151.6
C[C@@H]1CN(c2ccc(C#N)c3ncccc23)C[C@H](CN2CC(n3cc4c(n3)CNC4)C2)O1 [Example 11, 5-[(2S,6R)-2-[[3-(5,6-dihydro-4H-pyrrolo[3,4-c]pyrazol-2-yl)azetidin-1-yl]methyl]-6-methyl-morpholin-4-yl]quinoline-8-carbonitrile] | > 20 | > 10 | >602.4 | >531.9 | >204.5
C[C@@H]1CN(c2ccc(C#N)c3ncccc23)C[C@H](CN2CCC(n3ncc4c3CCNC4)CC2)O1 [Example 35, 5-[(2R,6S)-2-methyl-6-[[4-(4,5,6,7-tetrahydropyrazolo[4,3-c]pyridin-1-yl)-1-piperidyl]methyl]morpholin-4-yl]quinoline-8-carbonitrile] | > 20 | > 10 | >1924.5 | >397.8 | >121.4
C[C@@H]1CN(c2ccc(C#N)c3ncccc23)C[C@H](CN2CCC(n3cc4c(n3)CCNC4)CC2)O1 [Example 36, 5-[(2R,6S)-2-methyl-6-[[4-(4,5,6,7-tetrahydropyrazolo[4,3-c]pyridin-2-yl)-1-piperidyl]methyl]morpholin-4-yl]quinoline-8-carbonitrile] | > 20 | 10 | 566.6 | 246.7 | 180.7
C[C@@H]1CN(c2ccc(C#N)c3ncccc23)C[C@H](CN2CC(n3ncc4c3CCNC4)C2)O1 [Example 1, 5-[(2R,6S)-2-methyl-6-[[3-(4,5,6,7-tetrahydropyrazolo[4,3-c]pyridin-1-yl)azetidin-1-yl]methyl]morpholin-4-yl]quinoline-8-carbonitrile] | > 20 | > 10 | >1023.8 | >584.4 | >174.0
